Reference: patent publication US12662491B2 (Redona Therapeutics, Inc., priority 2020, dated 2026)
Where two headings read alike, the source gives them in different places.

Target: T1, Zcchc11 enzyme (Homo sapiens, UniProt Q5TAX3)
T1 construct: made in house; host or cells: HEK293 cells (Zcchc11); E. coli Rosetta II (LIN28A)
T1 sequence (Q5TAX3 212-1420): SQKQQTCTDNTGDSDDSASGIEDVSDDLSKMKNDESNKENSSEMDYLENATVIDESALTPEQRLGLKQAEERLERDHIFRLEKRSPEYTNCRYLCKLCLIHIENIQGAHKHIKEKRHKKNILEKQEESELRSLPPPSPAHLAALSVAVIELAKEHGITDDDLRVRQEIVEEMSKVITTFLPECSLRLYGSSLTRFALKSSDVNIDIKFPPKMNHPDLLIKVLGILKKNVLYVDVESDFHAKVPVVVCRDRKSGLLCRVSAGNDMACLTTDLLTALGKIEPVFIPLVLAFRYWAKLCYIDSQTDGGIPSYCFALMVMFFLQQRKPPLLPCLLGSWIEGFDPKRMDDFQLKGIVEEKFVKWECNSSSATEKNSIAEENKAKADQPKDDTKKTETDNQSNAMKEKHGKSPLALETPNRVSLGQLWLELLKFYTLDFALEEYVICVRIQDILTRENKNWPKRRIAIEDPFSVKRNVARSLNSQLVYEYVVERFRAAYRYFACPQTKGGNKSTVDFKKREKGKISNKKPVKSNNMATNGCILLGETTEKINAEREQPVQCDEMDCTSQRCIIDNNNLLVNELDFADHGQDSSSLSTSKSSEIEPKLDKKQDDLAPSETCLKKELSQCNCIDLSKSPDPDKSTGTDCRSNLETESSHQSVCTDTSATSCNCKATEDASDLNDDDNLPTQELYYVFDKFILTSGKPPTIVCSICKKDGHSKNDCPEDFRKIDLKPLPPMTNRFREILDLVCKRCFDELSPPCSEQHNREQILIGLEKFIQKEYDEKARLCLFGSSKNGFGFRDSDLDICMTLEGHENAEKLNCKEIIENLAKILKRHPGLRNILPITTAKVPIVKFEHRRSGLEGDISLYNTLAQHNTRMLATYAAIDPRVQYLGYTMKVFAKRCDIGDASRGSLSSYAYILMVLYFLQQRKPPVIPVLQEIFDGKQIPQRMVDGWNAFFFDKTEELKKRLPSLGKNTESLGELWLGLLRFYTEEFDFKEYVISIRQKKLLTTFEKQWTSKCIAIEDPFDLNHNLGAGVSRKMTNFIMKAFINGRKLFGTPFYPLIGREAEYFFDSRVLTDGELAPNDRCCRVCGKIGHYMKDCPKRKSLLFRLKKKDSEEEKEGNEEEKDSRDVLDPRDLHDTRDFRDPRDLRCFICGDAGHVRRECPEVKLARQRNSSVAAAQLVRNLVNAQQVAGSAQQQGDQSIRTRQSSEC
Assay: TUTase assay (Zcchc11 assay, Lin28a-dependent polyuridylation of pre-let-7)
Assay type: biochemical
Details: read-out: Potency Lin28a-dep Z11 IC50
Summary of the method: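 Potency is measured as inhibition of LIN28A-driven U-tail addition to 2 nM pre-let-7 by 0.2 nM HEK293-derived Zcchc11 fragment with 5 uM UTP at room temperature. Tail growth appears as fluorescein quenching by an annealing rhodamine-A20 probe.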

[1] = Lin28a-dependent Zcchc11 (Z11) TUTase assay
[2] = LIN28A 10 nM, Zcchc11 0.2 nM, 5′-fluorescein pre-let-7 miRNA 2 nM, UTP 5 uM, room temperature, 30 minutes pre-incubation
[3] = Lin28a-dependent Zcchc11 (Z11) TUTase activity

With CC(C)(C)OC(=O)N1CC(c2ccc(-n3cc(C(=O)O)c(=O)c4cc(Cl)c(N5CCC[C@@H]5COc5ncccc5Cl)cc43)cn2)C1 [Example 615, (R)-1-(6-(1-(tert-butoxycarbonyl)azetidin-3-yl)pyridin-3-yl)-6-chloro-7-(2-(((3-chloropyridin-2-yl)oxy)methyl)pyrrolidin-1-yl)-4-oxo-1,4-dihydroquinoline-3-carboxylic acid] the IC50 [1] was no more than 1000 nM.

With Cc1cc2c(=O)c(C(=O)O)cn(-c3ccc(N4CC(N(C)C)C4)nc3)c2cc1N1CCC[C@@H]1COc1ncccc1C [Example 545, (R)-1-(6-(3-(dimethylamino)azetidin-1-yl)pyridin-3-yl)-6-methyl-7-(2-(((3-methylpyridin-2-yl)oxy)methyl)pyrrolidin-1-yl)-4-oxo-1,4-dihydroquinoline-3-carboxylic acid] the IC50 [1] was no more than 1000 nM.

Compound Cc1cccnc1OC[C@H]1CCCN1c1cc2c(cc1C#N)c(=O)c(C(=O)O)cn2C1(C)CC1 [Example 35, 6-Cyano-1-(1-methylcyclopropyl)-7-[(2R)-2-{[(3-methylpyridin-2-yl)oxy]methyl}pyrrolidin-1-yl]-4-oxo-1,4-dihydroquinoline-3-carboxylic acid] has an IC50 [2] of no more than 1000 nM.

For COc1ccc(Cl)c(OCC23CC(CN2c2cc4c(cc2Cl)c(=O)c(C(=O)O)cn4-c2ccnc(N)c2)C3)n1 [Compound 177, 1-(2-aminopyridin-4-yl)-6-chloro-7-(1-[[(3-chloro-6-methoxy-pyridin-2-yl)oxy]methyl]-2-azabicyclo [2.1.1]hexan-2-yl)-4-oxoquinoline-3-carboxylic acid], the IC50 [3] was 1000 to 10000 nM.

In the case of Cc1ccc(OC[C@H]2CCCN2c2cc3c(cc2F)c(=O)c(C(=O)O)cn3-c2ccccc2)nc1 [Compound 93, (R)-6-fluoro-7-(2-(((5-methyl-pyridin-2-yl)oxy)methyl)pyrrolidin-1-yl)-4-oxo-1-phenyl-1,4-dihydro-quinoline-3-carboxylic acid], the IC50 [3] is reported as no more than 1000 nM.

Compound CN(C)C1CN(c2ccc(-n3cc(C(=O)O)c(=O)c4cc(C#N)c(N5CCC[C@@]5(C)COc5ncccc5F)cc43)cn2)C1 [Example 51, (S)-6-cyano-1-(6-(3-(dimethylamino)azetidin-1-yl)pyridin-3-yl)-7-(2-(((3-fluoropyridin-2-yl)oxy)methyl)-2-methylpyrrolidin-1-yl)-4-oxo-1,4-dihydroquinoline-3-carboxylic acid] has an IC50 [2] of no more than 1000 nM.

CN(C)C(=O)NC[C@H]1CCCN1c1cc2c(cc1Cl)c(=O)c(C(=O)O)cn2-c1ccc(N2CC(N(C)C)C2)nc1 [Compound 292, (R)-6-chloro-1-(6-(3-(dimethyl-amino)azetidin-1-yl)pyridin-3-yl)-7-(2-((3,3-dimethyl-ureido)methyl)pyrrolidin-1-yl)-4-oxo-1,4-dihydro-quinoline-3-carboxylic acid] was tested, and the IC50 [3] was no more than 1000 nM.

For Cc1cccnc1OC[C@H]1CCCN1c1cc2c(cc1Cl)c(=O)c(C(=O)O)cn2C1(C)COC1 [Example 456, (R)-6-chloro-1-(3-methyloxetan-3-yl)-7-(2-(((3-methylpyridin-2-yl)oxy)methyl)pyrrolidin-1-yl)-4-oxo-1,4-dihydroquinoline-3-carboxylic acid], the IC50 [1] was 1000 to 10000 nM.

With Cn1cc(Cn2cc(C(=O)O)c(=O)c3cc(Cl)c(N4CCC[C@@H]4COc4ncccc4Cl)cc32)cn1 [Compound 252, 6-chloro-7-[(2R)-2-[[(3-chloropyridin-2-yl)oxy]methyl]pyrrolidin-1-yl]-1-[(1-methyl-pyrazol-4-yl)methyl]-4-oxoquinoline-3-carboxylic acid] the IC50 [3] was no more than 1000 nM.

For Cc1cccnc1OC[C@H]1CCCN1c1cc2c(cc1Cl)c(=O)c(C(=O)O)cn2C1(CO)CC1 [Example 454, (R)-6-chloro-1-(1-(hydroxymethyl)cyclopropyl)-7-(2-(((3-methyl-pyridin-2-yl)oxy)methyl)pyrrolidin-1-yl)-4-oxo-1,4-dihydroquinoline-3-carboxylic acid], the IC50 [1] was 1000 to 10000 nM.

O=C(O)c1cn(-c2ccc(O)cc2F)c2cc(N3CCC[C@@H]3COc3ncccn3)c(F)cc2c1=O [Example 22, (R)-6-fluoro-1-(2-fluoro-4-hydroxyphenyl)-4-oxo-7-(2-((pyrimidin-2-yloxy)methyl)pyrrolidin-1-yl)-1,4-dihydroquinoline-3-carboxylic acid] showed an IC50 [2] of 1000 to 10000 nM.

Work on CN(C)C1CN(c2ccc(-n3cc(C(=O)O)c(=O)c4cc(Cl)c(N5CC(OC6CC6)C[C@@H]5COc5ncccc5Cl)cc43)cn2)C1 (stereo partly drawn) [Compound 275, 6-chloro-7-((2R)-2-(((3-chloropyridin-2-yl)oxy)methyl)-4-cycloprop-oxypyrrolidin-1-yl)-1-(6-(3-(dimethyl-amino)azetidin-1-yl)pyridin-3-yl)-4-oxo-1,4-dihydro-quinoline-3-carboxylic acid] yielded an IC50 [3] of no more than 1000 nM.

O=C(O)c1cn(C2CCNCC2)c2cc(N3CCC[C@@H]3COc3ncccc3Cl)c(Cl)cc2c1=O [Example 368, 6-chloro-7-[(2R)-2-{[(3-chloropyridin-2-yl)oxy]methyl}pyrrolidin-1-yl]-4-oxo-1-(piperidin-4-yl)-1,4-dihydroquinoline-3-carboxylic acid] was tested, and the IC50 [1] was 1000 to 10000 nM.

Compound Cn1cc(-n2cc(C(=O)O)c(=O)c3cc(Cl)c(N4CCC[C@@H]4COc4ncccc4Cl)cc32)cn1 [Example 436, (R)-6-chloro-7-(2-(((3-chloropyridin-2-yl)oxy)methyl)pyrrolidin-1-yl)-1-(1-methyl-1H-pyrazol-4-yl)-4-oxo-1,4-dihydroquinoline-3-carboxylic acid] has an IC50 [1] of no more than 1000 nM.

With COc1cnc(OC[C@H]2CC3CC3N2c2cc3c(cc2Cl)c(=O)c(C(=O)O)cn3-c2ccc(N)nc2)c(Cl)c1 (stereo partly drawn) [Example 651, 1-(6-aminopyridin-3-yl)-6-chloro-7-((3R)-3-(((3-chloro-5-methoxypyridin-2-yl)oxy)methyl)-2-azabicyclo[3.1.0]hexan-2-yl)-4-oxo-1,4-dihydroquinoline-3-carboxylic acid] the IC50 [1] was no more than 1000 nM.

Work on O=C(O)c1cn(-c2cncc(O)n2)c2cc(N3CCC[C@@H]3COc3ccccn3)c(F)cc2c1=O [Example 27, (R)-6-fluoro-1-(6-hydroxypyrazin-2-yl)-4-oxo-7-(2-((pyridin-2-yloxy)methyl)pyrrolidin-1-yl)-1,4-dihydroquinoline-3-carboxylic acid] yielded an IC50 [2] of 1000 to 10000 nM.

In the case of O=C(O)c1cn(-c2ccc3[nH]ncc3c2)c2cc(N3CCC[C@@H]3COc3ncccc3Cl)c(Cl)cc2c1=O [Compound 128, (R)-6-chloro-7-(2-(((3-chloropyridin-2-yl)oxy)methyl)pyrrolidin-1-yl)-1-(1H-indazol-5-yl)-4-oxo-1,4-dihydro-quinoline-3-carboxylic acid], the IC50 [3] is reported as no more than 1000 nM.

For CN(C)c1ccc(Cl)c(OC[C@H]2CCCN2c2cc3c(cc2Cl)c(=O)c(C(=O)O)cn3-c2ccnc(N)c2)n1 [Example 655, (R)-1-(2-aminopyridin-4-yl)-6-chloro-7-(2-(((3-chloro-6-(dimethylamino)pyridin-2-yl)oxy)methyl)pyrrolidin-1-yl)-4-oxo-1,4-dihydroquinoline-3-carboxylic acid], the IC50 [1] was no more than 1000 nM.

Work on Cc1cccnc1OC[C@H]1CCCN1c1c(F)cc2c(=O)c(C(=O)O)cn(-c3ccc(O)cc3)c2c1F [Compound 132, (R)-6,8-difluoro-1-(4-hydroxy-phenyl)-7-(2-(((3-methylpyridin-2-yl)oxy)methyl)pyrrolidin-1-yl)-4-oxo-1,4-dihydro-quinoline-3-carboxylic acid] yielded an IC50 [3] of no more than 1000 nM.

With O=C(O)c1cn(-c2ccc(O)cc2F)c2cc(N3CCC[C@@H]3COc3ccncn3)c(F)cc2c1=O [Compound 136, (R)-6-fluoro-1-(2-fluoro-4-hydroxy-phenyl)-4-oxo-7-(2-((pyrimidin-4-yloxy)methyl)pyrrolidin-1-yl)-1,4-dihydro-quinoline-3-carboxylic acid] the IC50 [3] was 1000 to 10000 nM.
